Results published in patent US5288720A, “Angiotensin II receptor blocking 2,3,6 substituted quinazolinones” (American Cyanamid Company, priority 1993, dated 1994).

System: ANGIOTENSIN II VASOPRESSOR RESPONSE
Assay: AII Challenge: blockade of angiotensin II vasopressor response in conscious SHR
Type: in vivo, rat (Conscious Male Okamoto-Aoki SHR)
Conditions: SHR n=2
How it was run: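 Conscious male Okamoto-Aoki SHR (16-20 weeks, ~330 g) cannulated in aorta and vena cava under local procaine; angiotensin II (human) 0.05 and 0.1 ug/kg i.v. given before and at 30-300 min after test compound i.v., i.p. or orally. Rise in systolic pressure (mmHg) expressed as % blockade versus each rat's predose response.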

[1] = 3 mg/kg p.o., AII 0.05 mcg/kg IV, 30 min post dose
[2] = 3 mg/kg p.o., AII 0.05 mcg/kg IV, 60 min post dose
[3] = 3 mg/kg p.o., AII 0.05 mcg/kg IV, 90 min post dose
[4] = 3 mg/kg p.o., AII 0.05 mcg/kg IV, 120 min post dose
[5] = 3 mg/kg p.o., AII 0.05 mcg/kg IV, 180 min post dose
[6] = 3 mg/kg p.o., AII 0.1 mcg/kg IV, 30 min post dose
[7] = 3 mg/kg p.o., AII 0.1 mcg/kg IV, 60 min post dose
[8] = 3 mg/kg p.o., AII 0.1 mcg/kg IV, 90 min post dose
[9] = 3 mg/kg p.o., AII 0.1 mcg/kg IV, 120 min post dose
[10] = 3 mg/kg p.o., AII 0.1 mcg/kg IV, 180 min post dose
[11] = 10 mg/kg i.v., AII 0.05 mcg/kg IV, 30 min post dose
[12] = 10 mg/kg i.v., AII 0.05 mcg/kg IV, 60 min post dose
[13] = 10 mg/kg i.v., AII 0.05 mcg/kg IV, 90 min post dose
[14] = 10 mg/kg i.v., AII 0.05 mcg/kg IV, 120 min post dose
[15] = 10 mg/kg i.v., AII 0.05 mcg/kg IV, 180 min post dose
[16] = 10 mg/kg i.v., AII 0.05 mcg/kg IV, 240 min post dose
[17] = 10 mg/kg i.v., AII 0.05 mcg/kg IV, 300 min post dose
[18] = 10 mg/kg i.v., AII 0.1 mcg/kg IV, 30 min post dose
[19] = 10 mg/kg i.v., AII 0.1 mcg/kg IV, 60 min post dose
[20] = 10 mg/kg i.v., AII 0.1 mcg/kg IV, 90 min post dose
[21] = 10 mg/kg i.v., AII 0.1 mcg/kg IV, 120 min post dose
[22] = 10 mg/kg i.v., AII 0.1 mcg/kg IV, 180 min post dose
[23] = 10 mg/kg i.v., AII 0.1 mcg/kg IV, 240 min post dose
[24] = 10 mg/kg i.v., AII 0.1 mcg/kg IV, 300 min post dose
[25] = 3 mg/kg i.v., AII 0.05 mcg/kg IV, 30 min post dose
[26] = 3 mg/kg i.v., AII 0.05 mcg/kg IV, 60 min post dose
[27] = 3 mg/kg i.v., AII 0.05 mcg/kg IV, 90 min post dose
[28] = 3 mg/kg i.v., AII 0.05 mcg/kg IV, 120 min post dose
[29] = 3 mg/kg i.v., AII 0.05 mcg/kg IV, 180 min post dose
[30] = 3 mg/kg i.v., AII 0.05 mcg/kg IV, 240 min post dose
[31] = 3 mg/kg i.v., AII 0.05 mcg/kg IV, 300 min post dose
[32] = 3 mg/kg i.v., AII 0.1 mcg/kg IV, 30 min post dose
[33] = 3 mg/kg i.v., AII 0.1 mcg/kg IV, 60 min post dose
[34] = 3 mg/kg i.v., AII 0.1 mcg/kg IV, 90 min post dose
[35] = 3 mg/kg i.v., AII 0.1 mcg/kg IV, 120 min post dose
[36] = 3 mg/kg i.v., AII 0.1 mcg/kg IV, 180 min post dose
[37] = 3 mg/kg i.v., AII 0.1 mcg/kg IV, 240 min post dose
[38] = 3 mg/kg i.v., AII 0.1 mcg/kg IV, 300 min post dose
[39] = 3 mg/kg p.o., AII 0.05 mcg/kg IV, 240 min post dose
[40] = 3 mg/kg p.o., AII 0.1 mcg/kg IV, 240 min post dose

CCCCc1nc2ccc(C(OC)C3CCCN(C)C3=O)cc2c(=O)n1Cc1ccc(-c2ccccc2-c2nn[nH]n2)cc1 (single isomer, unassigned; isomer 1) [Example 42, 2-Butyl-6-methoxy(1-methyl-2-oxo-3-piperidinyl)methyl]-3-[[2' -1H-tetrazol-5-yl)[1,1'-biphenyl]-4-yl]methyl-4(3H)-quinazolinone isomer 1]
% Inhibition of AII vasopressor response [1]: 19% | Average Change (systolic blood pressure response to AII) [1]: 32.5 mmHg | % Inhibition of AII vasopressor response [2]: 19% | Average Change (systolic blood pressure response to AII) [2]: 32.5 mmHg | % Inhibition of AII vasopressor response [3]: 50% | Average Change (systolic blood pressure response to AII) [3]: 20 mmHg | % Inhibition of AII vasopressor response [4]: 19% | Average Change (systolic blood pressure response to AII) [4]: 32.5 mmHg | % Inhibition of AII vasopressor response [5]: -2% | Average Change (systolic blood pressure response to AII) [5]: 41 mmHg | % Inhibition of AII vasopressor response [6]: 22% | Average Change (systolic blood pressure response to AII) [6]: 35 mmHg | % Inhibition of AII vasopressor response [7]: 22% | Average Change (systolic blood pressure response to AII) [7]: 35 mmHg | % Inhibition of AII vasopressor response [8]: 13% | Average Change (systolic blood pressure response to AII) [8]: 39 mmHg | % Inhibition of AII vasopressor response [9]: 11% | Average Change (systolic blood pressure response to AII) [9]: 40 mmHg | % Inhibition of AII vasopressor response [10]: 0% | Average Change (systolic blood pressure response to AII) [10]: 45 mmHg | % Inhibition of AII vasopressor response [11]: 100% | Average Change (systolic blood pressure response to AII) [11]: 0 mmHg | % Inhibition of AII vasopressor response [12]: 86% | Average Change (systolic blood pressure response to AII) [12]: 5 mmHg | % Inhibition of AII vasopressor response [13]: 93% | Average Change (systolic blood pressure response to AII) [13]: 2.5 mmHg | % Inhibition of AII vasopressor response [14]: 93% | Average Change (systolic blood pressure response to AII) [14]: 2.5 mmHg | % Inhibition of AII vasopressor response [15]: 64% | Average Change (systolic blood pressure response to AII) [15]: 12.5 mmHg | % Inhibition of AII vasopressor response [16]: 43% | Average Change (systolic blood pressure response to AII) [16]: 20 mmHg | % Inhibition of AII vasopressor response [17]: 43% | Average Change (systolic blood pressure response to AII) [17]: 20 mmHg | % Inhibition of AII vasopressor response [18]: 100% | Average Change (systolic blood pressure response to AII) [18]: 0 mmHg | % Inhibition of AII vasopressor response [19]: 82% | Average Change (systolic blood pressure response to AII) [19]: 7.5 mmHg | % Inhibition of AII vasopressor response [20]: 76% | Average Change (systolic blood pressure response to AII) [20]: 10 mmHg | % Inhibition of AII vasopressor response [21]: 65% | Average Change (systolic blood pressure response to AII) [21]: 15 mmHg | % Inhibition of AII vasopressor response [22]: 59% | Average Change (systolic blood pressure response to AII) [22]: 17.5 mmHg | % Inhibition of AII vasopressor response [23]: 65% | Average Change (systolic blood pressure response to AII) [23]: 15 mmHg | % Inhibition of AII vasopressor response [24]: 47% | Average Change (systolic blood pressure response to AII) [24]: 22.5 mmHg

CCCCc1nc2ccc(C(OC)C3CCCO3)cc2c(=O)n1Cc1ccc(-c2ccccc2-c2nn[nH]n2)cc1 (single isomer, unassigned) [Example 24]
% Inhibition of AII vasopressor response [25]: 100% | Average Change (systolic blood pressure response to AII) [25]: 0 mmHg | % Inhibition of AII vasopressor response [26]: 93% | Average Change (systolic blood pressure response to AII) [26]: 2.5 mmHg | % Inhibition of AII vasopressor response [27]: 93% | Average Change (systolic blood pressure response to AII) [27]: 2.5 mmHg | % Inhibition of AII vasopressor response [28]: 87% | Average Change (systolic blood pressure response to AII) [28]: 5 mmHg | % Inhibition of AII vasopressor response [29]: 80% | Average Change (systolic blood pressure response to AII) [29]: 7.5 mmHg | % Inhibition of AII vasopressor response [30]: 80% | Average Change (systolic blood pressure response to AII) [30]: 7.5 mmHg | % Inhibition of AII vasopressor response [31]: 83% | Average Change (systolic blood pressure response to AII) [31]: 6.5 mmHg | % Inhibition of AII vasopressor response [32]: 100% | Average Change (systolic blood pressure response to AII) [32]: 0 mmHg | % Inhibition of AII vasopressor response [33]: 87% | Average Change (systolic blood pressure response to AII) [33]: 5 mmHg | % Inhibition of AII vasopressor response [34]: 87% | Average Change (systolic blood pressure response to AII) [34]: 5 mmHg | % Inhibition of AII vasopressor response [35]: 100% | Average Change (systolic blood pressure response to AII) [35]: 0 mmHg | % Inhibition of AII vasopressor response [36]: 81% | Average Change (systolic blood pressure response to AII) [36]: 7.5 mmHg | % Inhibition of AII vasopressor response [37]: 62% | Average Change (systolic blood pressure response to AII) [37]: 15 mmHg | % Inhibition of AII vasopressor response [38]: 59% | Average Change (systolic blood pressure response to AII) [38]: 16 mmHg | % Inhibition of AII vasopressor response [1]: 64% | Average Change (systolic blood pressure response to AII) [1]: 17.5 mmHg | % Inhibition of AII vasopressor response [2]: 54% | Average Change (systolic blood pressure response to AII) [2]: 22.5 mmHg | % Inhibition of AII vasopressor response [3]: 48% | Average Change (systolic blood pressure response to AII) [3]: 25 mmHg | % Inhibition of AII vasopressor response [4]: 54% | Average Change (systolic blood pressure response to AII) [4]: 22.5 mmHg | % Inhibition of AII vasopressor response [5]: 20% | Average Change (systolic blood pressure response to AII) [5]: 39 mmHg | % Inhibition of AII vasopressor response [39]: 12% | Average Change (systolic blood pressure response to AII) [39]: 42.5 mmHg | % Inhibition of AII vasopressor response [6]: 57% | Average Change (systolic blood pressure response to AII) [6]: 22.5 mmHg | % Inhibition of AII vasopressor response [7]: 38% | Average Change (systolic blood pressure response to AII) [7]: 32.5 mmHg | % Inhibition of AII vasopressor response [8]: 33% | Average Change (systolic blood pressure response to AII) [8]: 35 mmHg | % Inhibition of AII vasopressor response [9]: 29% | Average Change (systolic blood pressure response to AII) [9]: 37.5 mmHg | % Inhibition of AII vasopressor response [10]: 29% | Average Change (systolic blood pressure response to AII) [10]: 37.5 mmHg | % Inhibition of AII vasopressor response [40]: 24% | Average Change (systolic blood pressure response to AII) [40]: 40 mmHg
